Experimental data reported in US8937183B2, “Detection of hydrogen peroxide” (Promega Corporation, priority 2011, dated 2015).

Assays:
[1] = Signal strength differences due to reaction pH and buffer composition (hydrogen peroxide, D-cysteine conversion, LDR); format: biochemical; details: for Net Average Signals at 15 Minutes / Net Average Signals at 60 Minutes / Net Average Signals at 105 Minutes: 100 μl of 10 μM H2O2 added
Description: A 30 μl sample of 4 mg/ml PBI 4458 in DMSO was diluted to 1.5 ml with Nanopure water, and 50 μl added to wells A1-12 and E1-12 of a microtiter plate. A 30 μl sample of 4 mg/ml PBI 4472 in DMSO was diluted to 1.5 ml with Nanopure, and 50 μl added to wells B1-12 and F1-12 of the plate. A 30 μl sample of 4 mg/ml PBI 4480 in DMSO was diluted to 1.5 ml with Nanopure water, and 50 μl added to wells C1-12 and G1-12 of the plate. A 30 μl sample of 4 mg/ml PBI 4481 in DMSO was diluted to 1.5 ml with Nanopure water, and 50 μl added to wells D1-12 and H1-12 of the plate. To the plate, a 50 μl sample of 200 mM KHPO4, pH 7.4 was added to wells A1-D4; 50 μl 200 mM Tris buffer, pH 7.4 was added to wells A5-D8; 50 μl 250 mM HEPES buffer, pH 7.5 was added to wells A9-D12; 50 μl 200 mM KHPO4 buffer, pH 9.2 was added to wells E1-H4; 50 μl 250 mM Tris buffer, pH 10.4 was added to wells E5-H8; and 50 μl 100 mM CAPS buffer, pH 10.4 was added to wells E9-H12.
A sample of hydrogen peroxide (30%, Sigma, H1009-5 ml) was diluted to 10 μM with Nanopure water, and 100 μl added to columns 3, 4, 7, 8, 11, 12 wells A-H of the plate. 100 μl Nanopure water was added to columns 1, 2, 5, 6, 9 and 10 of the plate. The plate was incubated at room temperature for 15 minutes.
A conversion solution was made by mixing 5 ml of 1 M HEPES buffer, pH 7.5, 4.9 ml of Nanopure water and 100 μl of 100 mM D-cysteine (in Nanopure water), and […] added to all wells of a luminometer plate.
After incubation, 25 μl of sample from all wells in the plate was transferred and mixed into the corresponding wells in the luminometer plate, incubated 2-3 minutes at room temperature, and 50 μl LDR (Example 23) added. The luminometer plate was incubated for 15 minutes at room temperature, and bioluminescence detected on a GloMax® luminometer.
Additional samples were taken at 60 and 105 minutes and added to a fresh luminometer plates containing 25 μl of conversion solution in all wells. The plates were then incubated for 15 minutes at room temperature, and bioluminescence detected as previously described.

[2] = Light generation from compounds following incubation with hydrogen peroxide in different pH solutions (D-cysteine conversion, LDR); format: biochemical; details: for Signal to Background Ratios: signal with peroxide to background no peroxide
Description: In this experiment, various compounds were tested for their ability to detect hydrogen peroxide in different pH solutions. Several compounds are shown to give much better signal strength and signal to background ratios than PBI 3048 (Example 23). 4 mg/ml solutions of compounds PBI 4480, 4481, 4452, 4470, 4472, 3048 (FIGS. 1 and 2) were made by dissolving them in DMSO (Fluka 41641). 30 μl of the compound solutions was diluted to 1.5 ml with Nanopure water, and 50 μl aliquots added as follows into a white, 96-well luminometer plate: PBI 4481, row A1-12; PBI 4480, row B1-12; PBI 4452, row C1-12; PBI 3048, row D1-12; PBI 4472, row E1-12 and PBI 4470, row F1-12.
25 μl of 200 mM TRIS buffer, pH 7.6 was added to wells A1-F4, 25 μl of 200 mM TRIS buffer, pH 8.8 was added to wells A5-F8, and 25 μl of 200 mM Tris buffer, pH 10.4 was added […].
30% hydrogen peroxide (Sigma H 1009-5 ml) was diluted to 40 μM in Nanopure water, and 25 μl added to columns 3, 4, 7, 8, 11 and 12 of the plate. 25 μl water was added to columns 1, 2, 5, 6, 9, and 10 of the plate, and the plate incubated at room temperature for 60 minutes.
A conversion solution was made by mixing 100 μl of 100 mM D-cysteine, 1 ml Tris Buffer pH 8.8 and 8.9 ml nanopure water. After mixing, 80 μl of the solution was added to wells A1-F12 of a new luminometer plate.
After incubation, 20 μl of sample from wells A1-F12 of the first plate was transferred to the same well in the new luminometer plate. The new plate was incubated at room temperature for 5 minutes, 100 μl of LDR (Example 23) was added to wells A1-F12, and bioluminescence detected on a Glo Max® luminometer (Promega).
The RLUs for the duplicate wells were averaged. The averages for the wells containing hydrogen peroxide were compared to the wells without hydrogen peroxide at the same pH (Table 2). BZT is used to designate benzothiazole derivatives of the compounds.
The Signal to Background (S/B) ratio is used to compare assay reagents with very difference signal strengths. An assay with a higher S/B ratio is often considered a better assay than one with a smaller S/B ratio (with all other factors being relatively equal).

[3] = pH 7.6 TRIS buffer, No H2O2, 60 minutes
[4] = pH 7.6 TRIS buffer, With H2O2 (25 μl of 40 μM added), 60 minutes
[5] = pH 8.8 TRIS buffer, No H2O2, 60 minutes
[6] = pH 8.8 TRIS buffer, With H2O2 (25 μl of 40 μM added), 60 minutes
[7] = pH 10.4 Tris buffer, No H2O2, 60 minutes
[8] = pH 10.4 Tris buffer, With H2O2 (25 μl of 40 μM added), 60 minutes

## CC1(C)OB(c2ccc(COc3ccc4nc(C#N)sc4c3)cc2F)OC1(C)C [PBI 4481, 6-((3-fluoro-4-(4,4,5,5-tetramethyl-1,3,2-dioxaborolan-2-yl)benzyl)oxy)benzo[d]thiazole-2-carbonitrile]
[1]; CAPS pH 10.4, 15 minutes
  Signal to Background Ratios at 15 Minutes: 15.0
  Net Average Signals at 15 Minutes: 3,139,869 RLU
[1]; CAPS pH 10.4, 60 minutes
  Signal to Background Ratios at 60 Minutes: 15.6
  Net Average Signals at 60 Minutes: 4,514,998 RLU
[1]; CAPS pH 10.4, 105 minutes
  Signal to Background Ratios at 105 Minutes: 12.3
  Net Average Signals at 105 Minutes: 6,646,007 RLU
[1]; HEPES pH 7.5, 15 minutes
  Signal to Background Ratios at 15 Minutes: 1.4
  Net Average Signals at 15 Minutes: 15,697 RLU
[1]; HEPES pH 7.5, 60 minutes
  Signal to Background Ratios at 60 Minutes: 2.5
  Net Average Signals at 60 Minutes: 56,121 RLU
[1]; HEPES pH 7.5, 105 minutes
  Signal to Background Ratios at 105 Minutes: 3.0
  Net Average Signals at 105 Minutes: 111,757 RLU
[1]; KPO4 Ph 7.4, 15 minutes
  Net Average Signals at 15 Minutes: 16,032 RLU
[1]; KPO4 pH 7.4, 15 minutes
  Signal to Background Ratios at 15 Minutes: 1.5
[1]; KPO4 pH 7.4, 60 minutes
  Signal to Background Ratios at 60 Minutes: 2.2
  Net Average Signals at 60 Minutes: 48,355 RLU
[1]; KPO4 pH 7.4, 105 minutes
  Signal to Background Ratios at 105 Minutes: 2.7
  Net Average Signals at 105 Minutes: 108,403 RLU
[1]; KPO4 pH 9.2, 15 minutes
  Signal to Background Ratios at 15 Minutes: 4.7
  Net Average Signals at 15 Minutes: 189,573 RLU
[1]; KPO4 pH 9.2, 60 minutes
  Signal to Background Ratios at 60 Minutes: 8.3
  Net Average Signals at 60 Minutes: 494,981 RLU
[1]; KPO4 pH 9.2, 105 minutes
  Signal to Background Ratios at 105 Minutes: 7.7
  Net Average Signals at 105 Minutes: 974,784 RLU
[1]; TRIS pH 10.4, 15 minutes
  Signal to Background Ratios at 15 Minutes: 23.2
  Net Average Signals at 15 Minutes: 1,467,615 RLU
[1]; TRIS pH 10.4, 60 minutes
  Signal to Background Ratios at 60 Minutes: 27.8
  Net Average Signals at 60 Minutes: 2,780,433 RLU
[1]; TRIS pH 10.4, 105 minutes
  Signal to Background Ratios at 105 Minutes: 24.2
  Net Average Signals at 105 Minutes: 4,441,956 RLU
[1]; Tris pH 7.4, 15 minutes
  Signal to Background Ratios at 15 Minutes: 1.9
  Net Average Signals at 15 Minutes: 29,382 RLU
[1]; Tris pH 7.4, 60 minutes
  Signal to Background Ratios at 60 Minutes: 3.5
  Net Average Signals at 60 Minutes: 111,440 RLU
[1]; Tris pH 7.4, 105 minutes
  Signal to Background Ratios at 105 Minutes: 4.4
  Net Average Signals at 105 Minutes: 245,489 RLU
[2]; pH 7.6
  Signal to Background Ratios: 7.0
[2]; [3]
  averaged RLUs (bioluminescence): 124,246 RLU
[2]; [4]
  averaged RLUs (bioluminescence): 873,626 RLU
[2]; pH 8.8
  Signal to Background Ratios: 21.1
[2]; [5]
  averaged RLUs (bioluminescence): 135,530 RLU
[2]; [6]
  averaged RLUs (bioluminescence): 2,854,279 RLU
[2]; pH 10.4
  Signal to Background Ratios: 32.4
[2]; [7]
  averaged RLUs (bioluminescence): 230,459 RLU
[2]; [8]
  averaged RLUs (bioluminescence): 7,474,603 RLU

## CC1(C)OB(/C=C/COc2ccc3nc(C#N)sc3c2)OC1(C)C [PBI 4458, (E)-6-((3-(4,4,5,5-tetramethyl-1,3,2-dioxaborolan-2-yl)allyl)oxy)-benzo[d]thiazole-2-carbonitrile]
[1]; CAPS pH 10.4, 15 minutes
  Signal to Background Ratios at 15 Minutes: 13.2
  Net Average Signals at 15 Minutes: 4,577,774 RLU
[1]; CAPS pH 10.4, 60 minutes
  Signal to Background Ratios at 60 Minutes: 12.1
  Net Average Signals at 60 Minutes: 5,831,485 RLU
[1]; CAPS pH 10.4, 105 minutes
  Signal to Background Ratios at 105 Minutes: 9.6
  Net Average Signals at 105 Minutes: 8,063,108 RLU
[1]; HEPES pH 7.5, 15 minutes
  Signal to Background Ratios at 15 Minutes: 2.0
  Net Average Signals at 15 Minutes: 117,752 RLU
[1]; HEPES pH 7.5, 60 minutes
  Signal to Background Ratios at 60 Minutes: 4.5
  Net Average Signals at 60 Minutes: 494,958 RLU
[1]; HEPES pH 7.5, 105 minutes
  Signal to Background Ratios at 105 Minutes: 5.7
  Net Average Signals at 105 Minutes: 1,033,511 RLU
[1]; KPO4 Ph 7.4, 15 minutes
  Net Average Signals at 15 Minutes: 148,190 RLU
[1]; KPO4 pH 7.4, 15 minutes
  Signal to Background Ratios at 15 Minutes: 2.2
[1]; KPO4 pH 7.4, 60 minutes
  Signal to Background Ratios at 60 Minutes: 4.5
  Net Average Signals at 60 Minutes: 615,057 RLU
[1]; KPO4 pH 7.4, 105 minutes
  Signal to Background Ratios at 105 Minutes: 5.4
  Net Average Signals at 105 Minutes: 1,297,857 RLU
[1]; KPO4 pH 9.2, 15 minutes
  Signal to Background Ratios at 15 Minutes: 6.4
  Net Average Signals at 15 Minutes: 937,111 RLU
[1]; KPO4 pH 9.2, 60 minutes
  Signal to Background Ratios at 60 Minutes: 9.5
  Net Average Signals at 60 Minutes: 2,490,775 RLU
[1]; KPO4 pH 9.2, 105 minutes
  Signal to Background Ratios at 105 Minutes: 9.1
  Net Average Signals at 105 Minutes: 4,925,484 RLU
[1]; TRIS pH 10.4, 15 minutes
  Signal to Background Ratios at 15 Minutes: 15.2
  Net Average Signals at 15 Minutes: 2,348,900 RLU
[1]; TRIS pH 10.4, 60 minutes
  Signal to Background Ratios at 60 Minutes: 19.4
  Net Average Signals at 60 Minutes: 3,795,644 RLU
[1]; TRIS pH 10.4, 105 minutes
  Signal to Background Ratios at 105 Minutes: 15.7
  Net Average Signals at 105 Minutes: 5,482,012 RLU
[1]; Tris pH 7.4, 15 minutes
  Signal to Background Ratios at 15 Minutes: 2.2
  Net Average Signals at 15 Minutes: 150,205 RLU
[1]; Tris pH 7.4, 60 minutes
  Signal to Background Ratios at 60 Minutes: 4.6
  Net Average Signals at 60 Minutes: 626,927 RLU
[1]; Tris pH 7.4, 105 minutes
  Signal to Background Ratios at 105 Minutes: 6.0
  Net Average Signals at 105 Minutes: 1,274,061 RLU

## O=C(O)C1CSC(c2nc3ccc(OCc4ccc(B(O)O)cc4)cc3s2)=N1 (stereo not drawn) [PBI 3048]
[2]; pH 7.6
  Signal to Background Ratios: 3.0
[2]; [3]
  averaged RLUs (bioluminescence): 569,141 RLU
[2]; [4]
  averaged RLUs (bioluminescence): 1,726,143 RLU
[2]; pH 8.8
  Signal to Background Ratios: 4.5
[2]; [5]
  averaged RLUs (bioluminescence): 558,869 RLU
[2]; [6]
  averaged RLUs (bioluminescence): 2,499,869 RLU
[2]; pH 10.4
  Signal to Background Ratios: 6.7
[2]; [7]
  averaged RLUs (bioluminescence): 558,333 RLU
[2]; [8]
  averaged RLUs (bioluminescence): 3,768,437 RLU
